Measurements from ChEMBL document CHEMBL3507680, “University of Dundee, Gates Library screen for HepG2 cell viability”.

Assay: Human HepG2 cell viability assay in 384 well format
Assay type: toxicity, cell-based
Parameters: dose 125 nL, time 70.5 hour; cytotoxicity at 70.5 h: concentration not given beside the values
Conditions: HepG2 cells, read-out: Inhibition

Compound	cytotoxicity at 70.5 h [%]
CC(C)Oc1ncccc1CNC(=O)N1CCC1	-7.74
CCc1nc(CN2CCCN(c3nccs3)CC2)no1	6.55
CC(=O)N1CCC[C@H]1C(=O)NCCOc1cccc(Cl)c1	0.931
CC(C)(C)c1noc(CN2CCCN(Cc3cccs3)CC2)n1	-3.44
Cc1cncc(C(=O)N2CCCCC2c2nc(C)cs2)c1 (centres undefined)	17.3
CNC(=O)C1CCN(C(=O)c2cccn2Cc2cccs2)CC1	-8.46
CCN(C)S(=O)(=O)N(CC)Cc1ccc2c(c1)OCO2	-17.8
Cc1nnc(NC(=O)NCc2cccnc2N(C)C)s1	-8.59
Cc1ccccc1CS(=O)(=O)CC(=O)NC1CCCCNC1=O (centres undefined)	-11.3
CC(C)Cc1noc(CN2CCN(c3nccs3)CC2)n1	-3.87
CC(Cn1cccn1)NC(=O)Nc1nnc(C2CC2)s1 (centres undefined)	-11
O=C(Nc1cc(C(F)(F)F)c[nH]c1=O)N1CCCSCC1	-8.3
c1csc(N2CCCN(Cc3nc(C4CC4)no3)CC2)n1	-15.8
CC(=O)N1CCCC1C(=O)NCCOc1cc(C)cc(C)c1 (centres undefined)	-30.3
O=C(C1CC1)N1CCN(Cc2coc(-c3ccc(Cl)cc3)n2)CC1	12.1
COc1ccccc1S(=O)(=O)Nc1ccc2c(C(=O)O)c[nH]c2c1	-6.86
COC(=O)C(NC(=O)C(C)C)c1cc(F)ccc1F (centres undefined)	-20.7
CCNc1cc2c(nn1)CCN(C(=O)c1cccc3c1OCCO3)C2	-9.67
Cn1cccc1C(=O)Nc1cc(F)ccc1OCC1CCCO1 (centres undefined)	-17.4
O=C(Nc1cc(F)ccc1OCC1CCCO1)N1CCCC1 (centres undefined)	-17.1

Compound	cytotoxicity at 70.5 h [%]
Cc1nc(C2CCCN(C(=O)CCCn3ccnc3C)C2)no1 (centres undefined)	-11.8
Cc1nc(C2CCCN(C(=O)c3ccc(Cn4cccn4)o3)C2)no1 (centres undefined)	-12.8
Clc1snnc1CN1CCOC(CNc2cccnn2)C1 (centres undefined)	-21.7
CN(C)c1ccc(CNc2cncc(-n3cccn3)n2)cc1	-4.47
Cc1nc(C)n(CC2CCCN2CC(=O)Nc2ccnn2C(C)C)n1 (centres undefined)	17
CNS(=O)(=O)c1ccc(C(=O)NCCc2ccccn2)cc1	-10.7
CCCNC(=O)N1CCN(Cc2cc(C)no2)CC1	-8.29
O=C(CN1C=Nc2ccccc2S1(=O)=O)NCCc1cccs1	1.55
Cc1noc(Cl)c1CCC(=O)N1CCN(c2ncccn2)CC1	-7.01
COc1ccccc1CNC(=O)N1CCCC(c2nncn2C)C1 (centres undefined)	-2.85
CCOc1ccccc1C(=O)NS(=O)(=O)c1ccc2c(c1)OCCCO2	-4.55
Cc1nnc2n1CCN(CCC(=O)Nc1sccc1C#N)C2	-12.9
CCc1nnc2n1CCN(CC(=O)Nc1sccc1C#N)C2	-9.93
COc1ccc(CNC(=O)NCc2c(C)cc(C)[nH]c2=O)cc1	-11.9
Cc1cnn(C2CN(CC(=O)Nc3cccnc3)C2)c1	-9.68
COc1ccc(CCC(=O)NC2CCC(O)CC2)cc1OC (centres undefined)	-4.91
Cc1cnn(C2CN(CC(=O)NCCc3ccccc3)C2)c1	-16.2
Cn1cc(C2CCCN2C(=O)c2ccc(Br)o2)cn1 (centres undefined)	-10.2
CC(C)c1cc(NC(=O)CN2CCCC2Cn2cccn2)on1 (centres undefined)	-1.57
Cn1cnc2c1CCN(Cc1nc(Cc3ccccc3)no1)C2	-3.21

Compound	cytotoxicity at 70.5 h [%]
CC(C(=O)NCCN1CCCCCC1)n1cncn1 (centres undefined)	-0.492
O=C(CN1CCCC(Cn2cncn2)C1)NCc1ccco1 (centres undefined)	-15.8
COCCCNC(=O)N1CCCC(c2nncn2C)C1 (centres undefined)	-12.4
Cc1nn(C)c(C)c1C1CCCN1Cc1noc(C2CC2)n1 (centres undefined)	7.14
Cc1nccn1-c1cc(CNC(=O)CCC2CCCO2)ccn1 (centres undefined)	43.5
CCc1nc(C(=O)N2CCN(C)CC2C)nn1-c1ccccc1Cl (centres undefined)	23.5
CCc1noc(C)c1C(=O)N1CCCC1Cn1cc(C)cn1 (centres undefined)	25.2
CC(C)c1nn(C)c(N2CCOCC2)c1CNC(C)c1cccs1 (centres undefined)	-1.47
Cc1nccc(-c2cccc(NCC(=O)N3CCc4sccc4C3)c2)n1	2.9
Cc1nccc(-c2cccc(NCC(=O)N3CCNC3=O)c2)n1	-0.295
O=C(CCC1CCCO1)NCc1ccnc(-n2cccn2)c1 (centres undefined)	23.5
Cc1ncsc1C(=O)NC1CCN(CC(=O)N(C)c2ccccc2)CC1	-1.98
Cc1ncsc1C(=O)NC1CCN(CC(=O)NCc2ccccc2)CC1	2.21
Cc1noc(C)c1CN(C)C(=O)c1ccc(NC2CC2)nc1	0.339
CC(NC(=O)CSCC#N)c1cccc(NC(=O)c2ccccc2)c1 (centres undefined)	10.4
Cc1cc(C)c(CNC(=O)NCC(O)COc2ccccc2)c(=O)[nH]1 (centres undefined)	21.6
CC(C)c1nn(C)c(N(C)C)c1CNCc1ccc2c(c1)OCO2	2.49
CC(C)c1nn(C)c(N2CCOCC2)c1CN[C@H](C)CO	-1.16
CC(CCc1ccco1)NC(=O)Nc1cc(C(F)(F)F)c[nH]c1=O (centres undefined)	0.203
